Assays:
Format in all cases: cell-based, human
[1] = tested on: RAB3B, member RAS oncogene family protein expression in ES2 cells; experiment: Microarray gene expression, Table 17
Protocol: (§1) Y/D is the ratio (in folds) of gene expression in cells treated with compound Y as compared with those of the no drug control (D),
(§2) YM/D is the ratio of gene expression in cells treated with compound YM (ACH-Y, Y without sugar moiety) compared with those of the no drug control (D)
(§3) Cell culture and drug-treatment.: ES2 cells were seeded in a T-25 flask with 4.5 million cells per flask for 24 hours. Cell culture was replaced with fresh medium with xanifolia-Y (Y) or DMSO no drug control (D) for 24 hours. Cells were then harvested for RNA isolation. Three experiments were done.
(§4) RNA extraction, labeling, hybridization, and data analysis. RNA was extracted from tumor cells using the Qiagen RNeasy Kit. RNA quality and quantity was checked by the Agilent BioAnalyzer and the NanoDrop® ND-1000 spectrophotometer respectively before further manipulation. The first and second cDNA strands were synthesized from 20 ng of total RNA using the Affymetrix T7 oligo(dT) primer protocol and kit for the two-cycle amplification. To produce amplified biotin-labeled-cRNA, the cDNA was […] by in vitro transcription using the MegaScript kit from Ambion. 15.0 μg of the labeled cRNA was fragmented and re-checked for concentration using the NanoDrop® ND-1000 spectrophotometer. A hybridization cocktail containing Affymetrix spike-in controls and fragmented labeled cRNA was loaded onto the Human U133 Plus 2.0 GeneChip® oligonucleotide array. The Affymetrix array (Affymetrix, Inc. Santa Clara, Calif.) is comprised of over 1,300,000 unique oligonucleotide features that represent greater than 38,500 well-substantiated human genes. The array was hybridized for 16 hours at 45° C. with rotation at 60 rpm then washed and stained with a strepavidin, R-phycoerythrin conjugate stain on the Affymetrix Fluidicis Station 450. Signal amplification was done using biotinylated antistreptavidin. The arrays were scanned using the GeneChip® 3000 confocal laser scanner with autoloader. The images were analyzed and quality control metrics recorded using Affymetrix GCOS software version 1.4. Lastly, the expression value for each gene was calculated using dChip PM-only model based or Plier algorithm.
(§5) Pairwise comparisons were made as follows: Treated vs. Control (Y vs. D), Modified Drug vs Control (YM/ACY-H vs. D) and Treated vs. Modified Drug (Y vs. YM/ACH-Y) Cel files analyzed using the Bioconductor package of R Statistical programming. Limma analysis generated a reasonable number of changing genes between the samples.
(§6) The raw data in the .CEL files were normalized by the GCRMA method (robust multi-array analysis). It is implemented in Bioconductor (http://www.bioconductor.org/). The raw signal intensity data were normalized, background corrected and summarized based on certain statistical models, and an expression value, in log 2-scale, is obtained per chip per probe set. Then the null hypothesis was tested that there's no significant changes in gene expression between the treatment pairs. This was done by LIMMA and is also implemented in Bioconductor. It uses empirical Bayes method to estimate the variance in gene expression. One comparison was made, namely, High Grade vs. Low Grade. The raw p-values were adjusted by the Benjamnin-Hochberg method for false discovery rate (FDR) control. All data sets contained a significant number of genes with a p-value less than 0.05, which is that the probability that a gene is NOT differential expressed (false positive) is 1:20.

[2] = tested on: myosin expression in ES2 cells; experiment: Microarray gene expression, Table 7
Protocol: as §1, §2, §3, §4, §5, §6

[3] = tested on: laminin expression in ES2 cells; experiment: Microarray gene expression, Table 3; settings: for LAMC1, gene expression ratio to no drug control (D): probe 200770_s_at
Protocol: as §1, §2, §3, §4, §5, §6

[4] = tested on: heparin sulfate expression in ES2 cells; experiment: Microarray gene expression, Table 10
Protocol: as §1, §2, §3, §4, §5, §6

[5] = tested on: potassium channel, subfamily U, protein expression in ES2 cells; experiment: Microarray gene expression, Table 18; settings: probe 237273_at
Protocol: as §1, §2, §3
RNA extraction, labeling, hybridization, and data analysis. RNA was extracted from tumor cells using the Qiagen RNeasy Kit. RNA quality and quantity was checked by the Agilent BioAnalyzer and the NanoDrop® ND-1000 spectrophotometer respectively before further manipulation. […] The images were analyzed and quality control metrics recorded using Affymetrix GCOS software version 1.4. Lastly, the expression value for each gene was calculated using dChip PM-only model based or Plier algorithm.
Pairwise comparisons were made as follows: Treated vs. Control (Y vs. D), Modified Drug vs Control (YM/ACY-H vs. D) and Treated vs. Modified Drug (Y vs. YM/ACH-Y) Cel files analyzed using the Bioconductor package of R Statistical programming. […]

[6] = tested on: fibronectin expression in ES2 cells; experiment: Microarray gene expression, Table 1
Protocol: as §1, §2, §3, §4, §5, §6

[7] = tested on: regulator of G-protein expression in ES2 cells; experiment: Microarray gene expression, Table 14
Protocol: as §1, §2, §3, §4, §5, §6

[8] = tested on: angiopoietin expression in ES2 cells; experiment: Microarray gene expression, Table 12
Protocol: as §1, §2, §3, §4, §5, §6

[9] = tested on: insulin-like growth factor binding protein expression in ES2 cells; experiment: Microarray gene expression, Table 16
Protocol: as §1, §2, §3, §4, §5, §6

[10] = tested on: Fibronectin secretion from skin SK-Mel-5 cells; experiment: Fibronectin secretion (Western blot), SK-MEL-5 cells; settings: Homo sapiens, 30 ug/ml
[11] = tested on: Fibronectin secretion from liver HepG2 cells; experiment: Fibronectin secretion (Western blot), HepG2 cells; settings: Homo sapiens, HepG2, HepG2 cells, 30 ug/ml

C/C=C(/C)C(=O)O[C@H]1[C@H](OC(=O)/C(C)=C\C)[C@@]2(CO)C(CC1(C)C)C1=CCC3[C@@]4(C)CC[C@H](O)C(C)(C)C4CC[C@@]3(C)[C@]1(C)[C@@H](O)[C@H]2O (stereo partly shown) [ACH-Y]
RAB3B, member RAS oncogene family, gene expression ratio to no drug control (D) ([1]; probe 205924_at): −1.8 folds
RAB3B, member RAS oncogene family, gene expression ratio to no drug control (D) ([1]; probe 205925_s_at): −1.2 folds
RAB3B, member RAS oncogene family, gene expression ratio to no drug control (D) ([1]; probe 227123_at): −1.2 folds
RAB3B, member RAS oncogene family, gene expression ratio to no drug control (D) ([1]; probe 242629_at): −1.8 folds
MYLK myosin, light polypeptide kinase, gene expression ratio to no drug control (D) ([2]; probe 202555_s_at): −1.2 folds
MYO6 myosin VI, gene expression ratio to no drug control (D) ([2]; probe 203215_s_at): −1.6 folds
MYO5A myosin VA, gene expression ratio to no drug control (D) ([2]; probe 204527_at): −1.2 folds
MYH9 myosin, heavy polypeptide 9, non-muscle, gene expression ratio to no drug control (D) ([2]; probe 211926_s_at): −1.2 folds
MYO1D myosin ID, gene expression ratio to no drug control (D) ([2]; probe 212338_at): −2.1 folds
MYH10 myosin, heavy polypeptide 10, non-muscle, gene expression ratio to no drug control (D) ([2]; probe 212372_at): −1.4 folds
MYLK myosin, light polypeptide kinase, gene expression ratio to no drug control (D) ([2]; probe 224823_at): −1.4 folds
MYO1C Myosin IC, gene expression ratio to no drug control (D) ([2]; probe 225080_at): −1.4 folds
expression ratio to the control, myosin family ([2]; span over probes of Table 7): −1.2 to −2.1 folds
LAMC1, gene expression ratio to no drug control (D) ([3]; listed as YM): −1.1 folds
LAMC1, gene expression ratio to no drug control (D) ([3]; listed as YM/ACH-Y): 1.1 folds
LAMB1 laminin, beta 1, gene expression ratio to no drug control (D) ([3]; probe 201505_at): −2.0 folds
LAMA4 laminin, alpha 4, gene expression ratio to no drug control (D) ([3]; probe 202202_s_at): −2.0 folds
LAMB1, gene expression ratio to no drug control (D) ([3]; probe 211651_s_at): −1.7 folds
LAMB2, gene expression ratio to no drug control (D) ([3]; probe 216264_s_at): −2.0 folds
HSPG2 heparan sulfate proteoglycan 2 (perlecan), gene expression ratio to no drug control (D) ([4]; probe 201655_s_at): −1.3 folds
HS2ST1 heparan sulfate 2-O-sulfotransferase 1, gene expression ratio to no drug control (D) ([4]; probe 203284_s_at): −1.7 folds
HPSE Heparanase, gene expression ratio to no drug control (D) ([4]; probe 219403_s_at): −1.3 folds
KCNU1 potassium channel, subfamily U, member 1, gene expression ratio to no drug control (D) [5]: −1.9 folds
FN1 fibronectin 1, gene expression ratio to no drug control (D) ([6]; probe 210495_x_at): −1.1 folds
FN1 fibronectin 1, gene expression ratio to no drug control (D) ([6]; probe 211719_x_at): −1.2 folds
FN1 fibronectin 1, gene expression ratio to no drug control (D) ([6]; probe 212464_s_at): −1.1 folds
FN1 fibronectin 1, gene expression ratio to no drug control (D) ([6]; probe 216442_x_at): −1.1 folds
RGS4 regulator of G-protein signalling 4, gene expression ratio to no drug control (D) ([7]; probe 204337_at): −1.1 folds
RGS4 regulator of G-protein signalling 4, gene expression ratio to no drug control (D) ([7]; probe 204338_s_at): −1.1 folds
RGS4 regulator of G-protein signalling 4, gene expression ratio to no drug control (D) ([7]; probe 204339_s_at): −1.2 folds
ANGPT2 angiopoietin 2, gene expression ratio to no drug control (D) ([8]; probe 205572_at): 1.4 folds
ANGPT1 angiopoietin 1, gene expression ratio to no drug control (D) ([8]; probe 205609_at): −1.2 folds
ANGPT2 angiopoietin 2, gene expression ratio to no drug control (D) ([8]; probe 211148_s_at): 1.4 folds
ANGPTL4 angiopoietin-like 4, gene expression ratio to no drug control (D) ([8]; probe 221009_s_at): −1.4 folds
ANGPTL1 Angiopoietin-like 1, gene expression ratio to no drug control (D) ([8]; probe 227533_at): −2.3 folds
IGFBP7 insulin-like growth factor binding protein 7, gene expression ratio to no drug control (D) ([9]; probe 201163_s_at): −2.7 folds
IGFBP4 insulin-like growth factor binding protein 4, gene expression ratio to no drug control (D) ([9]; probe 201508_at): −2.4 folds
IGFBP6 insulin-like growth factor binding protein 6, gene expression ratio to no drug control (D) ([9]; probe 203851_at): −1.8 folds
IGFBP1 insulin-like growth factor binding protein 1, gene expression ratio to no drug control (D) ([9]; probe 205302_at): −1.8 folds
IGFBP3 insulin-like growth factor binding protein 3, gene expression ratio to no drug control (D) ([9]; probe 210095_s_at): −3.5 folds
IGFBP3 insulin-like growth factor binding protein 3, gene expression ratio to no drug control (D) ([9]; probe 212143_s_at): −5.3 folds
inhibition at 30 µg/mL [10]: 21%
inhibition at 30 µg/mL [11]: 21%

Reference: US10213451B2, “Methods and compounds for modulating the secretion or expression of adhesion proteins or angiopoietins of cells” (PACIFIC ARROW LIMITED, priority 2004, dated 2019)
